Measured values taken from PubChem BioAssay AID1963871 (Molecular Pharmacology Branch, DTP, NCI, 2024).

Test system: KRAS-mutant PDC multicell tumor spheroid viability
Assay: Anticancer human tumor 521955-158-R2-J5-PDC patient-derived pancreatic carcinoma cell line growth inhibition [KRAS2]
Details: for viability, T/C: stronger effect = lower value
Source text: Multicellular complex tumor spheroid response to RAS pathway inhibitors in combination with a targeted agents in patient-derived cell lines with oncogenic KRAS variants from multiple cancer types
A high-throughput screen of multi-cell type tumor spheroids was designed to identify active combinations of targeted small molecules and KRAS pathway inhibitors. Complex spheroids include a stromal component modeled by human endothelial cells (HUVEC) and fibroblasts modeled by human mesenchymal stem cells (MSCs). The concentration ranges selected for each drug and investigational agent were based upon clinically achievable concentrations if the clinical Cmax of the agent was known.
Compounds. The drugs and investigational agents: BI-3406 (NSC825286), BAY-293 (NSC824723), batoprotafib (TNO155; NSC825523), sotorasib (AMG 510; NSC818433), MRTX1257 (NSC819558), elimusertib (BAY 1895344; NSC800525), molibresib (GSK525762; NSC774829), temuterkib (LY3214996; NSC803410), venetoclax (NSC766270), alisertib (NSC759677), olaparib (NSC753686), talazoparib (NSC767125), erdafitinib (NSC781556), ipatasertib (NSC767898), cabozantinib (NSC761068), nintedanib (NSC756659), abemaciclib (NSC768073), docetaxel (NSC628503), trametinib (NSC758246), and sapanisertib (NSC764658) were obtained from the National Cancer Institute (NCI) Developmental Therapeutics Program Chemical Repository. The FDA-approved anticancer drug set is available from the Developmental Therapeutics Program. […] The stock solutions were prepared in dimethyl sulfoxide (DMSO, Sigma-Aldrich, St. Louis, MO, cat. D2650) at 800-fold the tested concentration and stored at -70 degrees C prior to their use. All drugs and investigational agents were tested over a range starting from a high concentration at or near the clinical Cmax and decreasing in half-log increments. If the clinical Cmax for an agent had not been determined, the highest concentration tested was 10 microM.
Cell Culture. All cells were maintained in an incubator at 37 degrees C and 5% CO2 with 95% humidity. The PDC lines were cultured according to standard operating procedures established by the NCI PDMR (https://pdmr.cancer.gov/sops/default.htm). Briefly, all PDCs were thawed and cultured in Matrigel-coated flasks prepared with a working solution of 1X Ham's F-12 nutrient mix, without supplementation (Invitrogen, Waltham, MA, cat. 11765054), 100 U/mL penicillin-streptomycin (Invitrogen, cat. 15140122), and 2.5% Matrigel (Corning Inc., Corning, NY, cat. 354248) for the first three passages. All PDCs were cultured in complete DMEM/F-12 media containing advanced DMEM/F-12 (Invitrogen, cat. 12634028), 4.9% defined fetal bovine serum, heat inactivated (HyClone Laboratories Inc., Logan, UT, cat. SH30070.03HI), 389 ng/mL hydrocortisone (Sigma-Aldrich, cat. H4001), 9.7 ng/mL human EGF recombinant protein (Invitrogen, cat. PHG0313), 23.4 microg/mL adenine (Sigma-Aldrich, cat. A2786), 97.3 U/mL penicillin-streptomycin (Invitrogen, cat. 15140122), 1.9 mM L-glutamine (Invitrogen, cat. 25030081), and 9.7 microM Y-27632 dihydrochloride (Tocris Bioscience, Bristol, United Kingdom, cat. 1254). The PDCs were cultured in complete DMEM/F12 media without 9.7 microM Y-27632 dihydrochloride for at least two passages prior to the screen. The established cell line HOP-62 was cultured in RPMI 1640 medium, HEPES (Invitrogen, cat. 22400105) with 10% defined fetal bovine serum (HyClone Laboratories Inc., cat. SH30070.03) and 2 mM L-glutamine (Invitrogen, cat. 25030081). The pooled donor HUVEC were cultured in endothelial cell growth medium 2 (PromoCell, Heidelberg, Germany, cat. C-22011) and the hMSC were cultured in mesenchymal stem cell growth medium 2 (PromoCell, cat. C-28009). For all experiments, HUVEC and hMSC were used at passages </=5, while the malignant cell lines were used at passages </=15. […]

[1] = curve of first compound, second compound 0.1 µM
[2] = curve of first compound, second compound 0.316 µM
[3] = curve of first compound, second compound 1 µM
[4] = curve of first compound, second compound 3.16 µM
[5] = curve of first compound, second compound 10 µM
[6] = second compound 0.1 µM, first compound 0.0316 µM
[7] = second compound 0.1 µM, first compound 0.1 µM
[8] = second compound 0.1 µM, first compound 0.316 µM
[9] = second compound 0.1 µM, first compound 1 µM
[10] = second compound 0.1 µM, first compound 3.16 µM
[11] = second compound 0.1 µM, first compound 10 µM
[12] = second compound 0.316 µM, first compound 0.0316 µM
[13] = second compound 0.316 µM, first compound 0.1 µM
[14] = second compound 0.316 µM, first compound 0.316 µM
[15] = second compound 0.316 µM, first compound 1 µM
[16] = second compound 0.316 µM, first compound 3.16 µM
[17] = second compound 0.316 µM, first compound 10 µM
[18] = second compound 1 µM, first compound 0.0316 µM
[19] = second compound 1 µM, first compound 0.1 µM
[20] = second compound 1 µM, first compound 0.316 µM
[21] = second compound 1 µM, first compound 1 µM
[22] = second compound 1 µM, first compound 3.16 µM
[23] = second compound 1 µM, first compound 10 µM
[24] = second compound 3.16 µM, first compound 0.0316 µM
[25] = second compound 3.16 µM, first compound 0.1 µM
[26] = second compound 3.16 µM, first compound 0.316 µM
[27] = second compound 3.16 µM, first compound 1 µM
[28] = second compound 3.16 µM, first compound 3.16 µM
[29] = second compound 3.16 µM, first compound 10 µM
[30] = second compound 10 µM, first compound 0.0316 µM
[31] = second compound 10 µM, first compound 0.1 µM
[32] = second compound 10 µM, first compound 0.316 µM
[33] = second compound 10 µM, first compound 1 µM
[34] = second compound 10 µM, first compound 3.16 µM
[35] = second compound 10 µM, first compound 10 µM
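Also: viability read after seven days of drug exposure.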

Structure (SMILES)	IC50 [1]	IC50 [2]	IC50 [3]	IC50 [4]	viability, T/C [6]	viability, T/C [7]	viability, T/C [8]	viability, T/C [9]	viability, T/C [10]	viability, T/C [11]	viability, T/C [12]	viability, T/C [13]	viability, T/C [14]	viability, T/C [15]	viability, T/C [16]	viability, T/C [17]	viability, T/C [18]	viability, T/C [19]	viability, T/C [20]	viability, T/C [21]	also measured
COc1cc2nccc(Oc3ccc(NC(=O)C4(C(=O)Nc5ccc(F)cc5)CC4)cc3)c2cc1OC + CNCc1ccccc1-c1csc(C(C)Nc2nc(C)nc3cc(OC)c(OC)cc23)c1	6.77 µM	6.2 µM	3.7 µM	< 0.0316 µM	92.7%	94.2%	94.5%	92.2%	70.7%	39.4%	94.6%	101%	95.9%	115%	75.7%	31.9%	98.8%	99.9%	114%	99.6%	IC50 [5]: < 0.0316 µM; viability, T/C [22]: 57.7%; viability, T/C [23]: 2.02%; viability, T/C [24]: 0.62%; viability, T/C [25]: 0.34%; viability, T/C [26]: 0.41%; viability, T/C [27]: 0.52%; viability, T/C [28]: 0.39%; viability, T/C [29]: 0.4%; viability, T/C [30]: 0.2%; viability, T/C [31]: 0.12%; viability, T/C [32]: 0.63%; viability, T/C [33]: 0.12%; viability, T/C [34]: 0.23%; viability, T/C [35]: 0.19%
CC1(C)CCC(CN2CCN(c3ccc(C(=O)NS(=O)(=O)c4ccc(NCC5CCOCC5)c([N+](=O)[O-])c4)c(Oc4cnc5[nH]ccc5c4)c3)CC2)=C(c2ccc(Cl)cc2)C1 + CC1OCC2(CCN(c3cnc(Sc4ccnc(N)c4Cl)c(N)n3)CC2)C1N	5.3 µM	4.27 µM	1.37 µM	< 0.0316 µM	70.5%	75.5%	74%	81.3%	89.9%	15.3%	62.2%	71.7%	51.1%	63.5%	69.2%	11.9%	53.5%	51.5%	54.1%	50.3%	IC50 [5]: < 0.0316 µM; viability, T/C [22]: 45.7%; viability, T/C [23]: 8.54%; viability, T/C [24]: 48.1%; viability, T/C [25]: 41.3%; viability, T/C [26]: 35.1%; viability, T/C [27]: 41.4%; viability, T/C [28]: 46.7%; viability, T/C [29]: 8.81%; viability, T/C [30]: 40.3%; viability, T/C [31]: 47.5%; viability, T/C [32]: 37.2%; viability, T/C [33]: 40.5%; viability, T/C [34]: 17.1%; viability, T/C [35]: 1.93%
COc1cc2nc(C)nc(NC(C)c3cc(N)cc(C(F)(F)F)c3)c2cc1OC1CCOC1 (stereo not given)																					viability, T/C (compound 0.1 µM): 87.8% [middle of 17 runs]; IC50 (compound alone, run of 08/26/2021): > 10 µM; IC50 (compound alone, run of 09/02/2021): > 10 µM
COc1cc(Nc2ncc3c(n2)-c2ccc(Cl)cc2C(c2c(F)cccc2OC)=NC3)ccc1C(=O)O + C=CC(=O)N1CCN(c2nc(OCC3CCCN3C)nc3c2CCN(c2cccc4cccc(C)c24)C3)CC1CC#N	< 0.0316 µM	< 0.0316 µM	< 0.0316 µM	< 0.0316 µM	51.1%	28.1%	38.4%	36.3%	38.9%	38.2%	48.5%	27.2%	31.6%	38.8%	33.8%	42.2%	28.8%	28.7%	29.1%	27.7%	IC50 (curve of first compound, second compound 0.0316 µM): < 0.0316 µM; viability, T/C (second compound 0.0316 µM, first compound 0.0316 µM): 41.5%; viability, T/C (second compound 0.0316 µM, first compound 0.1 µM): 33.7%; viability, T/C (second compound 0.0316 µM, first compound 0.316 µM): 50.5%; viability, T/C (second compound 0.0316 µM, first compound 1 µM): 46.2%; viability, T/C (second compound 0.0316 µM, first compound 3.16 µM): 38.5%; viability, T/C (second compound 0.0316 µM, first compound 10 µM): 40.5%; viability, T/C [22]: 26.9%; viability, T/C [23]: 32%; viability, T/C [24]: 1.52%; viability, T/C [25]: 1.29%; viability, T/C [26]: 0.17%; viability, T/C [27]: 6.1%; viability, T/C [28]: 1.44%; viability, T/C [29]: 0.25%
Cn1ncnc1[C@H]1c2n[nH]c(=O)c3cc(F)cc(c23)N[C@@H]1c1ccc(F)cc1																					viability, T/C (compound 0.000316 µM): 104% [middle of 5 runs]; viability, T/C (compound 0.001 µM): 104% [middle of 5 runs]; viability, T/C (compound 0.00316 µM): 97.1% [middle of 5 runs]; viability, T/C (compound 0.01 µM): 90.9% [middle of 5 runs]; viability, T/C (compound 0.0316 µM): 90% [middle of 5 runs]; viability, T/C (compound 0.1 µM): 82.8% [middle of 5 runs]; IC50 (curve of compound): > 0.1 µM
